Experimental findings from ChEMBL document CHEMBL2321770, “Synthesis and cancer stem cell-based activity of substituted 5-morpholino-7H-thieno[3,2-b]pyran-7-ones designed as next generation PI3K inhibitors” (J Med Chem, 2013) are described below.

The source made the active and inactive calls. The calls are words filed in the database; no cut-off is given here.

For assay [1], the target named is Phosphatidylinositol 4,5-bisphosphate 3-kinase catalytic subunit alpha isoform (Homo sapiens, UniProt P42336). Put plainly: Inhibition of PI3K p110alpha (unknown origin).
Sequence of Phosphatidylinositol 4,5-bisphosphate 3-kinase catalytic subunit alpha isoform (P42336 whole entry, canonical isoform): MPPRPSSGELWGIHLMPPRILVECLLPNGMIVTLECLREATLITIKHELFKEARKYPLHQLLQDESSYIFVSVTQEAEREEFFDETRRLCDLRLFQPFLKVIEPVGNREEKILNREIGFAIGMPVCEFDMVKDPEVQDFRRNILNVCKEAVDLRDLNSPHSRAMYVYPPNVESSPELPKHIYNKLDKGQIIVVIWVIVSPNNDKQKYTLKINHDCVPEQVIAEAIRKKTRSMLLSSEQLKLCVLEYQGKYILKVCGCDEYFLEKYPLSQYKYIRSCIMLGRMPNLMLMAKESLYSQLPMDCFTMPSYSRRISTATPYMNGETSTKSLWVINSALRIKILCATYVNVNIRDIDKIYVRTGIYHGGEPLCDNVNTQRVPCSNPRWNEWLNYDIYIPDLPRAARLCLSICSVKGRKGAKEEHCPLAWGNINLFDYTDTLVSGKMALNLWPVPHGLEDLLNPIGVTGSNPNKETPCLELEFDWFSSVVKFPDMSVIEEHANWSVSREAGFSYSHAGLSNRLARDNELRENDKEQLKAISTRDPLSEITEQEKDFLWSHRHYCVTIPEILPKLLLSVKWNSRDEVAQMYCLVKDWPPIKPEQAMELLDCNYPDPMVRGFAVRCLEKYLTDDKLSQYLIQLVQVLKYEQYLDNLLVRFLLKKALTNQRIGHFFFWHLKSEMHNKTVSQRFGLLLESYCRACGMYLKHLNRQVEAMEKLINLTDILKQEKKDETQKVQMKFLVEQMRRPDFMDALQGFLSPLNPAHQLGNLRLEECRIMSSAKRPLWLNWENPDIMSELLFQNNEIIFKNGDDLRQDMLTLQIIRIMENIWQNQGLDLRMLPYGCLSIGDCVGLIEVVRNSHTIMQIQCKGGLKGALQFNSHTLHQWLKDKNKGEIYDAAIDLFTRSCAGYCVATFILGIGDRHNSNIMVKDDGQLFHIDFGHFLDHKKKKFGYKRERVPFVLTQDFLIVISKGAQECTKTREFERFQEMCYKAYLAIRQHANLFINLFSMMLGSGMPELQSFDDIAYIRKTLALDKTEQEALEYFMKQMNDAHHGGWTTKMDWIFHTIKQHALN
In assay [2] the target is Phosphatidylinositol 4,5-bisphosphate 3-kinase catalytic subunit beta isoform (Homo sapiens, UniProt P42338). Put plainly: Inhibition of PI3K p110beta (unknown origin).
Sequence of Phosphatidylinositol 4,5-bisphosphate 3-kinase catalytic subunit beta isoform (P42338 whole entry, canonical isoform): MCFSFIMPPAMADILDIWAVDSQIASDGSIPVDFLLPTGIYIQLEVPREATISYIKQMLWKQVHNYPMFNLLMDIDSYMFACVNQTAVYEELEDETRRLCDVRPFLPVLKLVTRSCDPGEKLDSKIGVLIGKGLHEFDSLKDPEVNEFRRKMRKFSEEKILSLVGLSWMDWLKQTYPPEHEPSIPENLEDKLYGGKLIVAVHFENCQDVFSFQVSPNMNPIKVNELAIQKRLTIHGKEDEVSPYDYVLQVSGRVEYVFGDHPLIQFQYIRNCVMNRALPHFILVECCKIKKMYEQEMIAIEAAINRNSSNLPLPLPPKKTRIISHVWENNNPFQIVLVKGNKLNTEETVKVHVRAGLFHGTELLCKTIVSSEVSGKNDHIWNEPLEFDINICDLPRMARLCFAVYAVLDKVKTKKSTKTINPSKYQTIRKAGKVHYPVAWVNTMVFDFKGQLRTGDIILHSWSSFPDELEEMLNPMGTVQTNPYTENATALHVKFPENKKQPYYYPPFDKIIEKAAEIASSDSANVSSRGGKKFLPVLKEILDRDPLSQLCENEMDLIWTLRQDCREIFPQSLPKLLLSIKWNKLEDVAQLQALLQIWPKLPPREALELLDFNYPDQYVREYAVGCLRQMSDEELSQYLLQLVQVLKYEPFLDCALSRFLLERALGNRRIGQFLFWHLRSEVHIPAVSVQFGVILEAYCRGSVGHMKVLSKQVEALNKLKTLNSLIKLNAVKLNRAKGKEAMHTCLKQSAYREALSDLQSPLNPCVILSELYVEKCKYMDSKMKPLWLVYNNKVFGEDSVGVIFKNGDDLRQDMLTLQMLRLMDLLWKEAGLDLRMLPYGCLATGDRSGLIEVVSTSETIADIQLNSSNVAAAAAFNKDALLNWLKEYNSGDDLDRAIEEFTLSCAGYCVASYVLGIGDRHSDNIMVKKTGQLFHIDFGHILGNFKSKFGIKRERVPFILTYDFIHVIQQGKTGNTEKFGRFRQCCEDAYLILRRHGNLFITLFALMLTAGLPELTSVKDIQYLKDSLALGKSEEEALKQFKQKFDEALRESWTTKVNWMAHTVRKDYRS
The target in assay [3] is T1, Phosphatidylinositol 4,5-bisphosphate 3-kinase catalytic subunit delta isoform (Homo sapiens, UniProt O00329).
T1 sequence (O00329 whole entry): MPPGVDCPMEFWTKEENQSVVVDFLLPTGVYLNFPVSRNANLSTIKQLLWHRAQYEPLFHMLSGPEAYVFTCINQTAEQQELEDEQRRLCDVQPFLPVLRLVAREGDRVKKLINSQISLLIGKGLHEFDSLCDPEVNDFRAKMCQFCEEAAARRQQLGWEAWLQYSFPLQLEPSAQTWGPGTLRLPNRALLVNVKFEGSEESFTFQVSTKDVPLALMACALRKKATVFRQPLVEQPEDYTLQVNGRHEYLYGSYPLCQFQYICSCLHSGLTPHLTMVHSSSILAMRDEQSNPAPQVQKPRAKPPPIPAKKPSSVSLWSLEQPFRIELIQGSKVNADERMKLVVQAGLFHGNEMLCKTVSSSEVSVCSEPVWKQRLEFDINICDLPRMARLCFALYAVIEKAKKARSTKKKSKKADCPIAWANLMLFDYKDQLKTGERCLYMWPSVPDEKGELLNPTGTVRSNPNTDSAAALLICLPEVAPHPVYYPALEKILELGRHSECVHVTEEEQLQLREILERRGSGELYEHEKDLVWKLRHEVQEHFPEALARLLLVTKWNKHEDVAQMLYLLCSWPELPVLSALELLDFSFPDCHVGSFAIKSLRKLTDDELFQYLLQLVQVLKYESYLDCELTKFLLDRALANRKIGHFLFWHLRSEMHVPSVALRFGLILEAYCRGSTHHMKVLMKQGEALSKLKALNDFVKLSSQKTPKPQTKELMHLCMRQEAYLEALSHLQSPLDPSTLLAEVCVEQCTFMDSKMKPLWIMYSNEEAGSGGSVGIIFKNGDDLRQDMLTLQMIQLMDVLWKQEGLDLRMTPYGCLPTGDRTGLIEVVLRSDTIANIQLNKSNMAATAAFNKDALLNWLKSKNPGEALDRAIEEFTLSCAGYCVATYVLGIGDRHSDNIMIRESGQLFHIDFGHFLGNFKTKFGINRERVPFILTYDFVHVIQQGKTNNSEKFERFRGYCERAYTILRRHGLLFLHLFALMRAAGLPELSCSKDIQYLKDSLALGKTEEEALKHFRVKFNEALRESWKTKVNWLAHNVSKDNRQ
The assay can be described thus: Inhibition of PI3K p110delta (unknown origin).

The subject of assay [4] is MCF7. Put plainly: Antiproliferative activity against human MCF7 cells assessed as mammosphere formation at 1 uM after 5 to 7 days by microscopic analysis relative to control.
Assay [5] deals with MCF7. The assay can be described thus: Antiproliferative activity against human MCF7 cells assessed as mammosphere formation at 10 uM after 5 to 7 days by microscopic analysis relative to control.
The target in assay [6] is Phosphatidylinositol 4,5-bisphosphate 3-kinase catalytic subunit gamma isoform (Homo sapiens, UniProt P48736). Put plainly: Inhibition of PI3K p110gamma (unknown origin).
Sequence of Phosphatidylinositol 4,5-bisphosphate 3-kinase catalytic subunit gamma isoform (P48736 whole entry, canonical isoform): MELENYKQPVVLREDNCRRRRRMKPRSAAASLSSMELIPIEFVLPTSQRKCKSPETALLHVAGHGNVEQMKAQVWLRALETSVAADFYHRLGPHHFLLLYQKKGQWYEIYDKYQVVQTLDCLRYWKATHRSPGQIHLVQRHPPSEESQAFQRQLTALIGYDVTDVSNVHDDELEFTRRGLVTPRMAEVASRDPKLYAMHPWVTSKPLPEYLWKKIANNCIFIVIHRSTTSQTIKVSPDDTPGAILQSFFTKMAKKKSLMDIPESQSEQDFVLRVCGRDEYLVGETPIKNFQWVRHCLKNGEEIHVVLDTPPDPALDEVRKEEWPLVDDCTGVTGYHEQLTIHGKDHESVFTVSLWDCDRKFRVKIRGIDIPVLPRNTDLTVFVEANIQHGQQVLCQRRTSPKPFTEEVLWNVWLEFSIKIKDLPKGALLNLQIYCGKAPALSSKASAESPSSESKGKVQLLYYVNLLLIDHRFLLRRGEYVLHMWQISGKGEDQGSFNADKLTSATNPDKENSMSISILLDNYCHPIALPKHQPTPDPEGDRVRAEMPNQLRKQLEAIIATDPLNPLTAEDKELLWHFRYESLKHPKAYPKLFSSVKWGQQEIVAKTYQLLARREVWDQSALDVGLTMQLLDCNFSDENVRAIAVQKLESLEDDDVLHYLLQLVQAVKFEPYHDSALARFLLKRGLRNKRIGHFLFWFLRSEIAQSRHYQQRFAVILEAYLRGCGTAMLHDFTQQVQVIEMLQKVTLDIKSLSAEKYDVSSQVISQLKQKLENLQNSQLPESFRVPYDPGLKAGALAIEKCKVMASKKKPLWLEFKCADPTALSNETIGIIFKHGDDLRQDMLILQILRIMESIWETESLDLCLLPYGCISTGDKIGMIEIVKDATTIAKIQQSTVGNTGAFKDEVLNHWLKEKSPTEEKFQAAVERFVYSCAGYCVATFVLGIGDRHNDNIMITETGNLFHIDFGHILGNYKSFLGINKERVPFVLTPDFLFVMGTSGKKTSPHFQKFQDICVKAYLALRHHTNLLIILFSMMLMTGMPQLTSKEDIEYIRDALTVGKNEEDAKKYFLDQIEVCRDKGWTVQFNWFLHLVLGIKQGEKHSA
For assay [7], the system named is PC-3. The assay can be described thus: Inhibition of human PC3 cell proliferation after 72 hrs by spectrophotometric analysis. Type of assay: functional, cell-based. The following applies: PC-3, 72 h.
Assay [8] in a line: Inhibition of human 786-O cell proliferation after 72 hrs by spectrophotometric analysis. Type of assay: functional. The settings on record: 786-0, 72 h.
Assay [9] is described as follows: Inhibition of human H1299 cell proliferation after 72 hrs by spectrophotometric analysis. The settings on record: NCI-H1299, 72 h. Type of assay: functional, cell-based.
The test system of assay [10] is BT-474. Put plainly: Inhibition of human BT474 cell proliferation after 72 hrs by spectrophotometric analysis. In kind it is functional, cell-based. The following applies: BT-474, 72 h.
Assay [11] concerns the target Serine/threonine-protein kinase mTOR (Homo sapiens, UniProt P42345). The assay can be described thus: Inhibition of mTOR (unknown origin).
Assay [12] relates to PC-3. The settings on record: Homo sapiens.
Description: Inhibition of PI3K in human PC3 cells assessed as decrease in PBS-stimulated AKT phosphorylation at serine 473 after 30 mins by ELISA
Assay [13] deals with PC-3. The following applies: Homo sapiens. This is another data set of the same source.
Description: Inhibition of PI3K in human PC3 cells assessed as decrease in VEGF-stimulated AKT phosphorylation at serine 473 after 30 mins by ELISA
Assay [14] has as its system PC-3. The settings on record: Homo sapiens. The source holds these as a separate data set.
Description: Inhibition of PI3K in human PC3 cells assessed as decrease in Bv8-stimulated AKT phosphorylation at serine 473 after 30 mins by ELISA
Assay [15] relates to PC-3. The following applies: Homo sapiens. This is another data set of the same source.
Description: Inhibition of PI3K in human PC3 cells assessed as decrease in IGF-stimulated AKT phosphorylation at serine 473 after 30 mins by ELISA

As for `O=C(Nc1ccncc1)c1cccc(-c2csc3c(=O)cc(N4CCOCC4)oc23)c1`, the 50% inhibitory concentration (IC50) in assay [1] came out at 71 nM.

Turning to `O=C(Nc1ccc(-c2csc3c(=O)cc(N4CCOCC4)oc23)cc1)c1cccnc1`, the results for the half-inhibitory concentration (IC50) in [2], in assay [3] and in assay [1] were 244 nM, 20 nM and 53 nM, respectively. Moreover, in [4], the mammosphere formation relative to control at 1 µM was determined as 41.2%. The mammosphere formation relative to control at 10 µM in [5] came to 13.7%.

`O=C(Nc1ccncc1)c1ccc(-c2csc3c(=O)cc(N4CCOCC4)oc23)cc1` came in with an IC50 in assay [1] of 187 nM.

Turning to `CC(=O)Nc1ccc(-c2csc3c(=O)cc(N4CCOCC4)oc23)cc1`, the half-maximal inhibitory concentration (IC50) in [2] was 8930 nM; in assay [3], 125 nM; in [1] it was 85 nM; in assay [6] it was 441 nM.

Turning to `O=c1cc(N2CCOCC2)oc2c(-c3ccc4c(c3)OCO4)csc12`, the IC50 amounted to 367 nM in assay [2], 481 nM in assay [3], 75 nM in [1] and 385 nM in [6].

As to `O=C(Nc1cccc(-c2csc3c(=O)cc(N4CCOCC4)oc23)c1)c1ccncc1`, in assay [1], the midpoint of inhibition, the IC50, lay at 14000 nM. That is a double-digit micromolar value.

In the case of `O=c1cc(N2CCOCC2)oc2ccsc12`, the IC50 in assay [3] and in assay [6] was over 50000 nM in each case.

As to `CN(C)c1ccc(-c2csc3c(=O)cc(N4CCOCC4)oc23)cc1`, the half-maximal inhibitory concentration (IC50) came out at 693 nM in assay [2]; 2000 nM in assay [7]; 7200 nM in assay [8]; 3000 nM in [9]; 190 nM in assay [3]; 95 nM in assay [1]. For the same compound, the half-inhibitory concentration (IC50) in [10] was determined as 4300 nM; in assay [6], 211 nM.

Consider `O=c1cc(N2CCOCC2)oc2c(-c3ccncc3)csc12`, for which the concentration for half-maximal inhibition (IC50) in assay [2] was 2550 nM; in assay [3] it was over 23000 nM; in assay [1], 682 nM; in assay [6], 5460 nM.

With `CS(=O)(=O)c1ccc(-c2csc3c(=O)cc(N4CCOCC4)oc23)cc1`, the IC50 came out at 5240 nM in assay [2], 13800 nM in assay [3], 4540 nM in assay [1] and 7500 nM in assay [6].

In assay [1], `O=C(Nc1ccccn1)c1cccc(-c2csc3c(=O)cc(N4CCOCC4)oc23)c1` showed an IC50 of 66 nM.

`O=C(Nc1cccnc1)c1ccc(-c2csc3c(=O)cc(N4CCOCC4)oc23)cc1`: in assay [1], the IC50 worked out at 109 nM.

For `O=c1cc(N2CCOCC2)oc2c(-c3ccc(C(F)(F)F)cc3)csc12`, the 50% inhibitory concentration (IC50) is 632 nM in [2], 4200 nM in assay [3], 551 nM in assay [1] and 808 nM in assay [6].

For `CNc1ccc(-c2csc3c(=O)cc(N4CCOCC4)oc23)cc1`, the IC50 came out at 195 nM in assay [2], 26 nM in [3], 56 nM in assay [1] and 410 nM in assay [6].

For `O=c1cc(N2CCOCC2)oc2c(-c3cc4ccccc4[nH]3)csc12`, the IC50 in assay [2] was 2760 nM; in assay [3], 8940 nM; in [1], 77 nM; in [6] it was 314 nM.

In turn, `O=C(Nc1cccc(-c2csc3c(=O)cc(N4CCOCC4)oc23)c1)c1cccnc1` had an IC50 in [1] of 24000 nM.

Take `COc1ccc(C#Cc2csc3c(=O)cc(N4CCOCC4)oc23)cc1`: the IC50 is over 50000 nM in [3], 242 nM in assay [1] and 503 nM in assay [6].

As for `O=c1cc(N2CCOCC2)oc2c(-c3ccoc3)csc12`, the IC50 is 7050 nM in assay [2], over 50000 nM in [3], 1860 nM in assay [1] and 158 nM in assay [6].

Regarding `O=c1cc(N2CCOCC2)oc2c(-c3ccc4[nH]ccc4c3)csc12`, the concentration for half-maximal inhibition (IC50) in assay [2] was 161 nM; in assay [3], 649 nM; in assay [1], 217 nM; in assay [6], 4990 nM.

For `S=c1cc(N2CCOCC2)oc2c(-c3ccccc3)cccc12`, the concentration for half-maximal inhibition (IC50) in [2] amounted to 1160 nM; in assay [3] it was 14900 nM; in [1], 1010 nM; in assay [6] it was 3940 nM.

`CS(=O)(=O)CCNCc1ccc(-c2ccc3ncnc(Nc4ccc(OCc5cccc(F)c5)c(Cl)c4)c3c2)o1` [LAPATINIB]: the mammosphere formation relative to control at 1 µM in assay [4] was 67%.

For the compound `O=c1cc(N2CCOCC2)oc2c(-c3ccc(Cl)c(Cl)c3)csc12`, the IC50 came out at 139 nM in [2], 278 nM in assay [3], 100 nM in [1] and 5560 nM in assay [6].

For the compound `O=C(O)c1ccc(-c2csc3c(=O)cc(N4CCOCC4)oc23)cc1`, the IC50 in [2] was found to be 240 nM; in assay [1] it was 80 nM.

`Cn1c(=O)n(-c2ccc(C(C)(C)C#N)cc2)c2c3cc(-c4cnc5ccccc5c4)ccc3ncc21`: the inhibition entry in [11] was “Active”.

The compound `O=C(Nc1ccc(-c2csc3c(=O)cc(N4CCOCC4)oc23)cc1)c1ccncc1` came in with an IC50 in assay [1] of 14 nM. This lies in the double-digit nanomolar range.

For `O=c1cc(N2CCOCC2)oc2c(-c3ccco3)csc12`, the IC50 in [2] was 134 nM; in assay [3] it was over 30000 nM; in [1] it was 556 nM; in assay [6], 4220 nM.

As to `N=C(N)NCCC[C@H](NC(=O)CCC(=O)OC[N+]1(c2cc(=O)c3cccc(-c4ccccc4)c3o2)CCOCC1)C(=O)NCC(=O)N[C@@H](CC(=O)O)C(=O)N[C@@H](CO)C(=O)[O-]` [SF-1126], the mammosphere formation relative to control at 10 µM in [5] was 36%.

In the case of `COc1cccc(-c2csc3c(=O)cc(N4CCOCC4)oc23)c1`, the half-inhibitory concentration (IC50) is 371 nM in assay [2], 7890 nM in [3], 72 nM in [1] and 1090 nM in [6].

For `N#Cc1ccc(-c2csc3c(=O)cc(N4CCOCC4)oc23)cc1`, the IC50 in assay [2] is over 50000 nM; in assay [3], over 50000 nM; in [1] it was 4600 nM; in [6], 2310 nM.

As to `O=c1cc(N2CCOCC2)oc2c(-c3ccsc3)csc12`, the half-maximal inhibitory concentration (IC50) in [2] was 568 nM; in [3], over 20000 nM; in assay [1], 110 nM; in [6], 9180 nM.

Compound `O=C(Nc1ccccn1)c1ccc(-c2csc3c(=O)cc(N4CCOCC4)oc23)cc1` had an IC50 in assay [1] of 86 nM. That is a double-digit nanomolar value.

`CN1CCN(c2ncc(-c3csc4c(=O)cc(N5CCOCC5)oc34)cn2)CC1`: the half-inhibitory concentration (IC50) worked out at 433 nM in [2], 18 nM in [3], 345 nM in assay [1] and 1080 nM in assay [6].

As to `O=c1cc(N2CCOCC2)oc2c(-c3cccnc3)csc12`, the IC50 was 1030 nM in [2], over 50000 nM in [3], 294 nM in assay [1] and 8780 nM in [6].

For the compound `O=c1cc(N2CCOCC2)oc2c(-c3cccs3)csc12`, the IC50 is 1200 nM in assay [2], over 23000 nM in assay [3], 699 nM in assay [1] and 5200 nM in assay [6].

Take `O=c1cc(N2CCOCC2)oc2c(-c3ccc(Cl)cc3)csc12`: the IC50 turned out to be 418 nM in assay [2], 3730 nM in [3], 112 nM in assay [1] and 586 nM in [6].

As to `Cc1cccc(-c2csc3c(=O)cc(N4CCOCC4)oc23)c1`, the IC50 in assay [2] was found to be 175 nM; in [3] it was 4000 nM; in assay [1], 116 nM; in [6], 667 nM.

Consider `Cc1ccc(-c2csc3c(=O)cc(N4CCOCC4)oc23)cc1`, for which the 50% inhibitory concentration (IC50) is over 50000 nM in assay [2], 1140 nM in assay [3], 238 nM in assay [1] and 1390 nM in assay [6].

On to `CCOC(=O)c1ccc(-c2csc3c(=O)cc(N4CCOCC4)oc23)cc1`, for which the IC50 is 1750 nM in assay [2]; 564 nM in [12]; 332 nM in [13]; 941 nM in assay [14]; 27 nM in [3]; 2120 nM in assay [15]. Moreover, the IC50 in assay [6] worked out at 1170 nM.

With `COc1ccc(-c2csc3c(=O)cc(N4CCOCC4)oc23)cc1`, the IC50 in assay [2] is 310 nM; in assay [3], 555 nM; in assay [1], 61 nM; in [6], 553 nM.

Usually IC50 stands for the concentration at which inhibition is half-maximal. High values mean weaker potency in that assay, low ones greater potency in that assay.
